How the values were obtained:
Type in all cases: cell-based
[1] = biological target: T1, Broad substrate specificity ATP-binding cassette transporter ABCG2 (Homo sapiens, UniProt Q9UNQ0); assay: (§1) Inhibition of ABCG2 (unknown origin) transfected in Flp-In-293 cells assessed as inhibition of Hoechst 33342 efflux after 90 mins by flow cytometry; conditions: 1.5 h
T1 sequence (Q9UNQ0 whole entry): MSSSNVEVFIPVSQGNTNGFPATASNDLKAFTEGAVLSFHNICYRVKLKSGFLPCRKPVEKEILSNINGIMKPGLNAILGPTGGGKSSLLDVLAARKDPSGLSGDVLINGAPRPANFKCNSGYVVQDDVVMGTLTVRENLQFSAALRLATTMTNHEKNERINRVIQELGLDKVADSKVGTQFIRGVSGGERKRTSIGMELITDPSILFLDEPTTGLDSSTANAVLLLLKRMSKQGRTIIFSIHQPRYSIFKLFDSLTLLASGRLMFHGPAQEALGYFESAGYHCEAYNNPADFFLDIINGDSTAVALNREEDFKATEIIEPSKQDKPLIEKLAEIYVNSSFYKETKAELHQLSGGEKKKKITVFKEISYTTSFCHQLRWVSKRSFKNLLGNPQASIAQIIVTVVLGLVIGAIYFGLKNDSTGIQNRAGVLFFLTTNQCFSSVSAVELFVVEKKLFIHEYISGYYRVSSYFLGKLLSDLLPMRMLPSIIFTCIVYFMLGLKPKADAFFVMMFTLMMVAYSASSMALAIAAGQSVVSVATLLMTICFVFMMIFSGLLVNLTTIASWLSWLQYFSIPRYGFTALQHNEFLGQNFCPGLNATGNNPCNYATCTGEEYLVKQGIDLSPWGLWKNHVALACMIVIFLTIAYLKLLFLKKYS

ABCG2 [2] = biological target: T2, ABCG2 (Homo sapiens, UniProt Q9UNQ0); assay: Inhibition of ABCG2 (unknown origin) transfected in Flp-In-293 cells assessed as inhibition of Hoechst 33342 efflux measured as inhibition ratio after 90 mins by flow cytometry; set-up: concentration or dose not given beside the values; conditions: Flp-In-293 cells transfected with ABCG2, probe Hoechst 33342
T2 sequence (Q9UNQ0 whole entry): T1 sequence (Q9UNQ0 whole entry)

ABCG2 [3] = biological target: T2, ABCG2; assay: as §1; conditions: Flp-In-293 cells transfected with ABCG2, probe Hoechst 33342

Compound	inhibition (INH) [1]	inhibition at 1.5 h (ABCG2 [2]) [%]	inhibition at 1.5 h (ABCG2 [3]) [%]
C=CC(C)(C)[C@@]12C[C@H]3c4nc5cc(Br)ccc5c(=O)n4[C@H](C)C(=O)N3[C@@H]1N(C(C)=O)c1ccccc12	Active	–	–
C=CC(C)(C)[C@@]12C[C@H]3c4nc5ccccc5c(=O)n4[C@H](C)C(=O)N3[C@@H]1N(C(C)=O)c1ccccc12	–	21.8	–
C=CC(C)(C)[C@@]12C[C@H]3c4nc5ccccc5c(=O)n4[C@H](C)C(=O)N3[C@@H]1N(C(C)=O)c1ccc(-c3ccc(C)cc3)cc12	Active	–	–
C=CC(C)(C)[C@@]12C[C@H]3c4nc5ccccc5c(=O)n4[C@H](C)C(=O)N3[C@@H]1N(C(C)=O)c1ccc(-c3ccc(OC)cc3)cc12	Active	–	–
C=CC(C)(C)[C@@]12C[C@H]3c4nc5ccc(-c6ccccc6)cc5c(=O)n4[C@H](C)C(=O)N3[C@@H]1N(C(C)=O)c1ccccc12	Active	–	–
C=CC(C)(C)[C@@]12C[C@H]3c4nc5ccc(C#N)cc5c(=O)n4[C@H](C)C(=O)N3[C@@H]1N(C(C)=O)c1ccccc12	Active	–	–
C=CC(C)(C)[C@@]12C[C@H]3c4nc5ccc(Cl)cc5c(=O)n4[C@H](C)C(=O)N3[C@@H]1N(C(C)=O)c1ccccc12	Active	66.8	–
C=CC(C)(C)[C@@]12C[C@H]3c4nc5ccccc5c(=O)n4[C@H](C)C(=O)N3[C@@H]1N(C(C)=O)c1ccc(C3CCCCC3)cc12	Active	–	–
C=CC(C)(C)[C@@]12C[C@H]3c4nc5ccc(F)cc5c(=O)n4[C@H](C)C(=O)N3[C@@H]1N(C(C)=O)c1ccccc12	Active	34.6	–
C=CC(C)(C)[C@@]12C[C@H]3c4nc5ccc(OC)cc5c(=O)n4[C@H](C)C(=O)N3[C@@H]1N(C(C)=O)c1ccccc12	Active	–	–
C=CC(C)(C)[C@@]12C[C@H]3c4nc5ccccc5c(=O)n4[C@H](C)C(=O)N3[C@@H]1N(C(C)=O)c1ccc(Br)cc12	Active	–	–
C=CC(C)(C)[C@@]12C[C@H]3c4nc5ccccc5c(=O)n4[C@H](C)C(=O)N3[C@@H]1N(C(C)=O)c1ccc(-c3ccccc3)cc12	Active	–	–
C=CC(C)(C)[C@@]12C[C@H]3c4nc5ccc(I)cc5c(=O)n4[C@H](C)C(=O)N3[C@@H]1N(C(C)=O)c1ccccc12	Active	35.4	–
C=CC(C)(C)[C@@]12C[C@H]3c4nc5ccccc5c(=O)n4[C@H](C)C(=O)N3[C@@H]1N(C(C)=O)c1ccc(-c3ccc(C#N)cc3)cc12	Active	–	–
C=CC(C)(C)[C@@]12C[C@H]3c4nc5ccccc5c(=O)n4[C@H](C)C(=O)N3[C@@H]1N(C(C)=O)c1ccc(-c3ccc(-c4ccccc4)cc3)cc12	Active	–	–
C=CC(C)(C)[C@@]12C[C@H]3c4nc5ccc(Br)cc5c(=O)n4[C@H](C)C(=O)N3[C@@H]1N(C(C)=O)c1ccccc12	Active	64.5	–
C=CC(C)(C)[C@]12C[C@@H](C(=O)Nc3ccccc3C(=O)OC)N(C(=O)[C@@H](C)NC(=O)OC(C)(C)C)[C@H]1N(C(C)=O)c1ccccc12	–	–	27.5

— ChEMBL document CHEMBL3400045, “Synthesis and ABCG2 inhibitory evaluation of 5-N-acetylardeemin derivatives” (Bioorg Med Chem, 2015)
